US20250034159A1, “INHIBITORS OF EPIDERMAL GROWTH FACTOR RECEPTOR” (ORIC Pharmaceuticals, Inc., priority 2021, published 2025)

Columns and labels:
[1] = tested on: Ba/F3_EGFR WT cells; assay: Biological Activity Assay D: BaF3 cell proliferation assay, EGFR wild-type (BaF3 WT); assay type: cell-based; details: Ba/F3 EGFR; Ba/F3_EGFR WT cells, ~72 hours, CellTiter-Glo; read-out: BaF3 WT IC50
Protocol: (§1) One frozen vial of cells should be thawed into one T25 flask in 10 mL media. Keep the flask upright in the incubator.
(§2) Method: One frozen vial of cells was thawed into one T25 flask in 10 mL media and the flask was kept upright in the incubator. Cells were split 1:10 every two to three days when cells reached confluency of around 1×10^6 cells/mL. Bravo protocol files were used with Greiner 384-well plates for all steps of compound preparation, cell plating and compound addition. […] 16 μL of DMSO were added (for compounds starting at 20 μM) or 28 μL DMSO (for compounds starting at 5 μM) to 96-well V-bottom polypropylene plate: wells 1A-1H (8 compounds/plate). […] 20 μL DMSO were added to the remainder of the wells (columns 2-12) in the 96-well V-bottom plate. A Bravo liquid handler was used to make 1:3 serial dilutions from columns 1 to 11 (12 remains as DMSO only) to prepare the DMSO dilution plate. 144 μL media were added to each well of a new 96-well V-bottom polypropylene plate to prepare the intermediate dilution plate. A Bravo or 96-head Integra liquid handler was used to add and mix 6 μL of test compound from the DMSO dilution plate to the intermediate dilution plate. (1:25 dilution). Cells were transferred from a flask into a 50 mL conical, vortex gently and the number of cells were counted, with a target cell number of about 1×10^6 cells per mL. The cells were diluted in culture medium in 50 mL conical or T25 flask, and the cell suspension was added to BRAVO reservoir and then use Bravo protocol to plate the appropriate number of cells shown below in 36 μl of medium per well as follows: Ba/F3-WT-EGFR 2000 cells per well of a 384 well plate; Ba/F3-LR/CS-EGFR 2000 cells per well of a 384 well plate; and Ba/F3-d19/CS-EGFR 1500 cells per well of a 384 well plate. An extra 10 mL of dead volume was utilized in each reservoir.
(§3) Using a Bravo liquid handler, 4 μl of test compound solution was added per well from the intermediate dilution plate to plated cells (1:10 dilution from the intermediate plate, final compound dilution 1:250 and final DMSO concentration per well is 0.4%). Using the 96 BRAVO Head, 25 μl were aspirated from the intermediate dilution plate and 4 μl each were dispensed into 4 wells (square pattern) in the 384-well plate. Any remaining test compound is dispensed into a secondary plate to prevent cross contamination of cells in the intermediate compound plate. After the compounds were added, the plate was shaken at 600 rpm gently for 60 see, and the plates were incubated in a tissue culture incubator, 37° C., 5% CO2, for ˜ 72 hours. After incubation, CTG 2.0 reagent was allowed to equilibrate to room temperature (˜3 hours) and cells to reach room temperature (˜10-15 minutes) and reagent was added to cells (40 μL/well) using a Bravo liquid handler. The plates were shaken to allow proper mixing (˜5 min) and let settle for 10 minutes and were read on Tecan plate reader using the appropriate luminescence method. Data from plate reader was transferred to an excel file and entered directly into Dotmatics using the protocols under EGFR Project/Cell Proliferation/named: “BaF3_EGFRwt_CP”, “BaF3_EGFR_d19/CS_CP”, “BaF3_EGFR_LR/CS_CP”. Curves were fit with a 4-parameter model and IC50s calculated by the Dotmatics software. DMSO wells were averaged to define the high control (100% growth). The average of the highest concentration of the positive control compound (afatinib) was used to define the 0% growth and used to lock the bottom of the curves. The tops of the curves were not fixed.

[2] = tested on: BaF3_EGFR d19/CS cells; assay: Biological Activity Assay D: BaF3 cell proliferation assay, EGFR exon 19 deletion/C797S (BaF3 d19/CS); assay type: cell-based; details: Ba/F3 EGFR; BaF3_EGFR d19/CS cells, ~72 hours, CellTiter-Glo; read-out: BaF3 d19/CS IC50
Protocol: as §1, §2, §3

[3] = tested on: BaF3_EGFR LR/CS cells; assay: Biological Activity Assay D: BaF3 cell proliferation assay, EGFR L858R/C797S mutant (BaF3 LR/CS); assay type: cell-based; details: Ba/F3 EGFR; BaF3_EGFR LR/CS cells, ~72 hours, CellTiter-Glo; read-out: BaF3 LR/CS IC50
Protocol: as §1, §2, §3

[4] = target: recombinant human EGFR exon 19 deletion/C797S double mutant protein (Homo sapiens (Human), UniProt P00533, C797S/DEL746-750); assay: Biological Activity Assay C: biochemical assay against EGFR exon 19 deletion/C797S protein (EGFR d19/CS)
Sequence of recombinant human EGFR exon 19 deletion/C797S double mutant protein (P00533 other isoform, or with tags, fused parts or gaps C797S/del 1-668/del 746-750 limits assumed): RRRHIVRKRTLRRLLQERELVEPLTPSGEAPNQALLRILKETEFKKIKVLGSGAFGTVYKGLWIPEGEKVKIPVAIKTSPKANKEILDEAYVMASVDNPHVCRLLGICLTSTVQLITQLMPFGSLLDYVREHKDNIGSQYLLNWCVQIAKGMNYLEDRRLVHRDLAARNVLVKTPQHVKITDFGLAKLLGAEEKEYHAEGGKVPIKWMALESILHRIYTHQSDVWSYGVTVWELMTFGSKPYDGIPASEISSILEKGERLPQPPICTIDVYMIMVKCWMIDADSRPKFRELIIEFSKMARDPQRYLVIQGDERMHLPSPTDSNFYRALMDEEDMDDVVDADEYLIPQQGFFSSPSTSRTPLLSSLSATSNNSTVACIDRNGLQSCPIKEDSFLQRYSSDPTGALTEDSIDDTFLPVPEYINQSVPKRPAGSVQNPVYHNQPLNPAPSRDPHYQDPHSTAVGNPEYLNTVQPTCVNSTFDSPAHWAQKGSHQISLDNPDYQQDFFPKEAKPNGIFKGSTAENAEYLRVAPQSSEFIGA
Protocol: In Row A of a 384-well polypropylene plate, was added 48 μL of DMSO. In wells A1 and A24, were added 12 μL of DMSO. […] To a well in Row A were added 12 μL of each 10 mM test compound stock (100% DMSO). […] The final intermediate dilution plate contained 4×16-point compound serial dilutions in assay buffer. The DMSO concentration was 10%. The intermediate compound dilution plate was transferred to the Bravo and the “5 uL dispense into ARP.pro” protocol was run. To the black low volume assay ready plates, were added 5 μL of 40 uM Phosphosens peptide sensor/4 mM ATP working solution to each well. […] To column 24, was added 10 μL of assay buffer. The final DMSO concentration was 2.5%. […] The plates were sealed with the TopSeal-A Plus plate seals. […] Set for 90 cycles with 120 second interval. […] The slope of each curve was constructed using Dotmatics in each well, and each IC50s was calculated using a 4-parameter fit model.

IC50 [1]	IC50 [2]	IC50 [3]	IC50 [4]	Compound
2500 nM	71.3 nM	40.5 nM	0.69 nM	Fc1ccc(-c2nn([C@H]3CCCOC3)cc2-c2ncnc3oc(-c4ccccc4)cc23)cc1 (single isomer, unassigned) [Example 137]
2020 nM	88.9 nM	22.5 nM	1.33 nM	Fc1ccc(-c2nn([C@H]3CCOC[C@@H]3F)cc2-c2ncnc3oc(-c4ccccc4)cc23)cc1 (single isomer, unassigned) [Example 152]
1800 nM	60.4 nM	22.3 nM	1.04 nM	Fc1ccc(-c2nn([C@@H]3CCOC[C@H]3F)cc2-c2ncnc3oc(-c4ccccc4)cc23)cc1 (single isomer, unassigned) [Example 153]
1350 nM	53.8 nM	19.6 nM	0.29 nM	CN1CC[C@@H](n2cc(-c3ncnc4oc(-c5ccccc5)cc34)c(-c3ccc(F)cc3)n2)C1=O (single isomer, unassigned) [Example 166]
1640 nM	162 nM	32.8 nM	0.83 nM	CN1CC[C@H](n2cc(-c3ncnc4oc(-c5ccccc5)cc34)c(-c3ccc(F)cc3)n2)C1=O (single isomer, unassigned) [Example 167]
3070 nM	260 nM	196 nM	0.97 nM	CS(=O)(=O)[C@@H]1CC[C@H](n2cc(-c3ncnc4oc(-c5ccccc5)cc34)c(-c3ccc(F)cc3)n2)C1 (single isomer, unassigned) [Example 192]
3040 nM	259 nM	174 nM	1.64 nM	CS(=O)(=O)[C@H]1CC[C@@H](n2cc(-c3ncnc4oc(-c5ccccc5)cc34)c(-c3ccc(F)cc3)n2)C1 (single isomer, unassigned) [Example 193]
1690 nM	92.2 nM	61.1 nM	0.5 nM	Fc1ccc(-c2nn([C@H]3CCOC[C@H]3F)cc2-c2ncnc3oc(-c4ccccc4)cc23)cc1 (single isomer, unassigned) [Example 210]
886 nM	20.1 nM	18.3 nM	0.35 nM	Fc1ccc(-c2nn([C@@H]3CCOC[C@@H]3F)cc2-c2ncnc3oc(-c4ccccc4)cc23)cc1 (single isomer, unassigned) [Example 211]
2610 nM	168 nM	80.9 nM	0.51 nM	C[C@@H]1OCC[C@H]1n1cc(-c2ncnc3oc(-c4ccccc4)cc23)c(-c2ccc(F)cc2)n1 (single isomer, unassigned) [Example 213]
2510 nM	303 nM	136 nM	0.88 nM	C[C@H]1OCC[C@@H]1n1cc(-c2ncnc3oc(-c4ccccc4)cc23)c(-c2ccc(F)cc2)n1 (single isomer, unassigned) [Example 214]
710 nM	51.8 nM	20.7 nM	0.33 nM	CC1(C)C[C@H](Cn2cc(-c3ncnc4oc(-c5ccccc5)cc34)c(-c3ccc(F)cc3)n2)O1 (single isomer, unassigned) [Example 221]
1250 nM	182 nM	76.8 nM	0.59 nM	CC1(C)C[C@@H](Cn2cc(-c3ncnc4oc(-c5ccccc5)cc34)c(-c3ccc(F)cc3)n2)O1 (single isomer, unassigned) [Example 222]
18900 nM	886 nM	502 nM	4.88 nM	CC1(C)C[C@H](n2cc(-c3ncnc4oc(-c5ccccc5)cc34)c(-c3ccc(F)cc3)n2)CCO1 (single isomer, unassigned) [Example 225]
10200 nM	413 nM	236 nM	1.86 nM	CC1(C)C[C@@H](n2cc(-c3ncnc4oc(-c5ccccc5)cc34)c(-c3ccc(F)cc3)n2)CCO1 (single isomer, unassigned) [Example 226]
2370 nM	287 nM	88.5 nM	5.1 nM	Fc1ccc(-c2nn([C@@H]3CCCCC3(F)F)cc2-c2ncnc3oc(-c4ccccc4)cc23)cc1 (single isomer, unassigned) [Example 230]
6040 nM	414 nM	228 nM	4.09 nM	Fc1ccc(-c2nn([C@H]3CCCCC3(F)F)cc2-c2ncnc3oc(-c4ccccc4)cc23)cc1 (single isomer, unassigned) [Example 233]
2500 nM	73.9 nM	35 nM	0.74 nM	CC1(C)C[C@@H](n2cc(-c3ncnc4oc(-c5ccccc5)cc34)c(-c3ccc(F)cc3)n2)CO1 (single isomer, unassigned) [Example 237]
2070 nM	52.1 nM	31 nM	0.62 nM	CC1(C)C[C@H](n2cc(-c3ncnc4oc(-c5ccccc5)cc34)c(-c3ccc(F)cc3)n2)CO1 (single isomer, unassigned) [Example 238]
876 nM	26.9 nM	10.6 nM	0.06 nM	N=[S@]1(=O)CC[C@H](n2cc(-c3ncnc4oc(-c5ccccc5)cc34)c(-c3ccc(F)cc3)n2)C1 (single isomer, unassigned) [Example 246]
1360 nM	26.9 nM	8.8 nM	0.09 nM	N=[S@@]1(=O)CC[C@@H](n2cc(-c3ncnc4oc(-c5ccccc5)cc34)c(-c3ccc(F)cc3)n2)C1 (single isomer, unassigned) [Example 247]
834 nM	24.8 nM	22.9 nM	0.291 nM	Cn1cnc(-c2cc3c(-c4cn(C5CC5(F)F)nc4-c4ccc(F)cc4)ncnc3o2)c1 (single isomer, unassigned) [Example 273]
721 nM	23.5 nM	16.1 nM	0.213 nM	Cn1cnc(-c2cc3c(-c4cn([C@H]5CC5(F)F)nc4-c4ccc(F)cc4)ncnc3o2)c1 (single isomer, unassigned) [Example 274]
633 nM	17.1 nM	8.82 nM	0.12 nM	O[C@H]1C[C@@H](n2cc(-c3ncnc4oc(-c5ccccc5)cc34)c(-c3ccc(F)cc3)n2)C1 [Example 120, (1s,3s)-3-(3-(4-Fluorophenyl)-4-(6-phenylfuro[2,3-d]pyrimidin-4-yl)-1H-pyrazol-1-yl)cyclobutan-1-ol]
